Drawing on ChEMBL document CHEMBL1201862, “PubChem BioAssay data set” (2004), this text covers IC50, AC50 and EC50 for 15 compounds.

The structures appear in SMILES notation. The source made the active and inactive calls.

Assay [1] addresses T1, Orexin/Hypocretin receptor type 1 (Homo sapiens, UniProt O43613).
T1 sequence (O43613 whole entry): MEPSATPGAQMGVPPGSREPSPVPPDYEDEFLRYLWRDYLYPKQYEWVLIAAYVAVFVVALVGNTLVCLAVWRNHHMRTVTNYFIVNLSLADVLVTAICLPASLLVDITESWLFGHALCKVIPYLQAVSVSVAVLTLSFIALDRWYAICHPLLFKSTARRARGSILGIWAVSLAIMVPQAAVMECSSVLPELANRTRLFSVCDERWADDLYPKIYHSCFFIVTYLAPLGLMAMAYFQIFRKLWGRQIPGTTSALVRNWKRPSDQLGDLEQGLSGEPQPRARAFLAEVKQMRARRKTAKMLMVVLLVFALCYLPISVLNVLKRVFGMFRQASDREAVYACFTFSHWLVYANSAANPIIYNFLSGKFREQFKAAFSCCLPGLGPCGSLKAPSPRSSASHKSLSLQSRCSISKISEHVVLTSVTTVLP
Kind of assay: Homogeneous Time Resolved Fluorescence (HTRF)-based cell-based high throughput dose response assay for antagonists of the orexin 1 receptor (OX1R; HCRTR1). [Related pubchem assays (depositor defined):AID434989, AID435008, AID463079, AID485270, AID492963, AID492964, AID492965, AID493232, AID504717, AID504718]. The class given is functional. (TR-FRET usually uses a lanthanide donor and a delayed reading to cut background.)

Assay [2] concerns the target T1, Orexin/Hypocretin receptor type 1. The assay can be described thus: Fluorescence-based cell-based high throughput dose response assay for antagonists of the orexin 1 receptor (OX1R; HCRTR1). [Related pubchem assays (depositor defined):AID434989, AID435008, AID463079, AID485270, AID492963, AID492964, AID492965, AID493232, AID504717, AID504718]. The format is functional.

A short description of assay [3]: Counterscreen for antagonists of the orexin 1 receptor (OX1R; HCRTR1): Fluorescence-based cell-based high throughput dose response assay to identify antagonists of the parental CHO cell line. [Related pubchem assays (depositor defined):AID434989, AID435008, AID463079, AID485270, AID492963, AID492964, AID492965, AID493232, AID504699, AID504701]. The class given is functional. Background: Counterscreens check selectivity or assay interference.

In a further assay the test system is CHO-K1. Kind of assay: Counterscreen for antagonists of the orexin 1 receptor (OX1R; HCRTR1): Homogeneous time resolved fluorescence (HTRF)-based cell-based dose response assay to identify antagonists of the parental CHO-K1 cell line. [Related pubchem assays (depositor defined):AID434989, AID435008, AID463079, AID485270, AID492963, AID492964, AID492965, AID493232, AID504699, AID504701]. The class given is functional. The settings on record: Cricetulus griseus.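 Also: potency for inhibition of ATP-stimulated IP1 production as antagonists.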

For a further assay, the system named is Escherichia coli. Kind of assay: microbe, parasite or virus in culture.
A further assay has as its target SUMO-activating enzyme (Homo sapiens, UniProt Q9UBT2). Kind of assay: SUMOylation inhibitor hit validation, confirmation, SUMOylation inhibitor project, biochemical, AlphaScreen (AID 2018). The format is functional. A general note: Bead proximity is the source of the signal in Alpha formats.
In another assay the test system is HeLa. The assay can be described thus: HeLa cell cytotoxicity, dose response, cytotoxicity control for MITF activator project, CellTiter-Glo luminescence, cherry-pick samples (AID 540259). The class given is functional, cell-based. The following applies: Homo sapiens.
Assay [4] concerns the target FAD-linked sulfhydryl oxidase ALR (Homo sapiens, UniProt P55789). The assay can be described thus: inhibitors of human ALR sulfhydryl oxidase, dose response, biochemical, H2O2 detection, luminescence, cherry-pick (AID 493248).
Assay [5] can be described thus: growth suppression of PTEN-null colon cells, dose response, cell-based, HCT116 PTEN knockout (AID 1047).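 Also: HCT116 colon tumor cells with PTEN knocked out; cells exposed to compound for 60 hours before readout; potency for loss of cell viability measured by luminescence.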 The class given is functional.
The target in assay [6] is T2, Microphthalmia-associated transcription factor (Homo sapiens, UniProt O75030).
T2 sequence (O75030 whole entry): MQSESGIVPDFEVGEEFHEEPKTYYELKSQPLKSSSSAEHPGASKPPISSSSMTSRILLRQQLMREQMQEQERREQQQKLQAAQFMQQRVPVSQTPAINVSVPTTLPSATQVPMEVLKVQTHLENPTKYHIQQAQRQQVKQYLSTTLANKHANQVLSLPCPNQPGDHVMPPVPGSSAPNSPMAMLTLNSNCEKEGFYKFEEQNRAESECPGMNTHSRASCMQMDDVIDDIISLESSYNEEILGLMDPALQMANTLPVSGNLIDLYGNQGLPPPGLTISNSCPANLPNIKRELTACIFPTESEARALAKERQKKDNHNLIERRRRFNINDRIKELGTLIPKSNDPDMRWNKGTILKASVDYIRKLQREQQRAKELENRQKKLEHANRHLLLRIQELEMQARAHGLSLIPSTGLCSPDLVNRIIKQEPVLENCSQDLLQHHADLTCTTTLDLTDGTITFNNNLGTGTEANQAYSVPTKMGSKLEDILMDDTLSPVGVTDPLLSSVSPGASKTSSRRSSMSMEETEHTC
Kind of assay: TRPM1 promoter luciferase signal decrease, dose response, MITF inhibitor project, cell-based, SK-MEL-5, cherry-picked, set 3 (AID 493073).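 Also: SK-MEL-5 melanoma cells with luciferase driven by the MITF target TRPM1 promoter.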 The format is functional.

Assay [7] is described as follows: growth suppression of beta-catenin-knockout colon cells, dose response, cell-based, HCT116, human colon tumor (AID 1045).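 Also: HCT116 colon tumor cells with beta catenin knocked out; cells exposed to compound for 60 hours.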 The format is functional.
Assay [8] has as its target Dual specificity tyrosine-phosphorylation-regulated kinase 1A (Rattus norvegicus, UniProt Q63470). The format is biochemical, Homo sapiens.
The nature of assay [9]: Shn3 3'UTR reporter inhibitors, dose response, cell-based, Clone20 osteoblasts, firefly luciferase, cherry-picked (AID 624132).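 Also: firefly luciferase luminescence from reporter carrying the Shn3 3'UTR in osteoblasts.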 The format is functional.
The nature of assay [10]: control 3'UTR Renilla luciferase suppression, dose response, counter-screen for Shn3 inhibitor project, cell-based, Clone20-Shn3RL, cherry-picked (AID 624133). The format is functional.
Assay [11] can be described thus: HepG2 cell cytotoxicity, dose response, cytotoxicity control for Shn3 inhibitor project, CellTiter-Glo, cherry-picked (AID 624134). The class given is functional, cell-based.
In another assay the target is T3, Aminopeptidase N (Plasmodium falciparum FcB1/Columbia, UniProt O96935).
T3 sequence (O96935 whole entry): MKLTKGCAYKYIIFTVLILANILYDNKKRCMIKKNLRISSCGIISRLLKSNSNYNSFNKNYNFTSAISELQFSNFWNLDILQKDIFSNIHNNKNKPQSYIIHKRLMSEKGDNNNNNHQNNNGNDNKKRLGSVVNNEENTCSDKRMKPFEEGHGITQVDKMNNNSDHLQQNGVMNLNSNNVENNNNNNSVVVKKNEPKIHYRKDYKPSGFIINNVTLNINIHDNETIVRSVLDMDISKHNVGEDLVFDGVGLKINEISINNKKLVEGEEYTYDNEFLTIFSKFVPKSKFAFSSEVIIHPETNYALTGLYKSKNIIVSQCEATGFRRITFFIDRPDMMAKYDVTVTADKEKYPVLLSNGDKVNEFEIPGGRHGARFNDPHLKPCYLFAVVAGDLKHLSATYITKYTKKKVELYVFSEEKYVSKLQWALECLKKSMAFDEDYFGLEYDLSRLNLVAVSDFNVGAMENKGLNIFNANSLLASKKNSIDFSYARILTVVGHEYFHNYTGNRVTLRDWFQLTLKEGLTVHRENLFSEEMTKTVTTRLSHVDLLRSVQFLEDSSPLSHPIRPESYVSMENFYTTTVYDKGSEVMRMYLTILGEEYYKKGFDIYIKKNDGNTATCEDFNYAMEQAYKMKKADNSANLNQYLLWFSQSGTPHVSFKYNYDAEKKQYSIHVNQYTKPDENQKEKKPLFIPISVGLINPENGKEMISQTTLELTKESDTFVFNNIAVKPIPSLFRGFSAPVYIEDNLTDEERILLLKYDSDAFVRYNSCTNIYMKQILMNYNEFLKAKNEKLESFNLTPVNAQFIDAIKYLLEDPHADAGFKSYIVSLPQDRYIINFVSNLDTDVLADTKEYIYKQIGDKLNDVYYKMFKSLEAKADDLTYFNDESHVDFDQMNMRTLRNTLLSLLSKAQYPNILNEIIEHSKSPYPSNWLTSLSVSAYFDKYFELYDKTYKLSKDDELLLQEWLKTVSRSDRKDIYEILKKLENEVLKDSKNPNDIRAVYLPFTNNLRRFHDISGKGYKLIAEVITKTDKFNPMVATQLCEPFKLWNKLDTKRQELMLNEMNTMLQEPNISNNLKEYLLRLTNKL
Kind of assay: P. falciparum M1AAP inhibitors, biochemical, fluorogenic H-Leu-NHMec substrate, 1536-well (AID 1445). The arrangement: species or system Plasmodium falciparum 3D7, 3D7.

A further assay concerns H4. The assay can be described thus: Luminescence Cell-Based Dose Response HTS to Identify Activators of 5'UTR Stem-Loop Driven Prion Protein mRNA Translation in H4 Neuroglioblastoma Cells. [Related pubchem assays: 1829 (Project Summary), 1814 (Primary HTS)]. The class given is functional. The following applies: Homo sapiens.
Assay [12] is described as follows: Luminescence Cell-Based Dose Response HTS to Identify Activators of Luciferase Translation or Activity in H4 […] Cells. [Related pubchem assays: 1829 (Project Summary), 1814 (Primary HTS)]. The format is functional.

Chain of FAD-linked sulfhydryl oxidase ALR (P55789 whole entry): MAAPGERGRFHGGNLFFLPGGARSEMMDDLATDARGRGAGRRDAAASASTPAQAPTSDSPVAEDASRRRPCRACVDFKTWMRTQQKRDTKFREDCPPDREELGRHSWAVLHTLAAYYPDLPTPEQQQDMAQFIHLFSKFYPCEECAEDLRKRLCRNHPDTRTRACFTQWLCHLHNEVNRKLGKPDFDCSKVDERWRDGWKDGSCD
Chain of SUMO-activating enzyme (Q9UBE0 whole entry): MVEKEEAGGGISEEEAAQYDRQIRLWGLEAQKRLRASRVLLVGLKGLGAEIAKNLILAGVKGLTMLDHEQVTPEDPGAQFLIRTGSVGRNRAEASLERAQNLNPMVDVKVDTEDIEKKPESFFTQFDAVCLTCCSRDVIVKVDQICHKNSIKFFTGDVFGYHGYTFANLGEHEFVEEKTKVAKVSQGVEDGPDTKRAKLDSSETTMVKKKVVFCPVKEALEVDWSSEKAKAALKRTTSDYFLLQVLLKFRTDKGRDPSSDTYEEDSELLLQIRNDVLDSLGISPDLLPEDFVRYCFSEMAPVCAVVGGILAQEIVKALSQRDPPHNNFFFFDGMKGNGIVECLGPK
Chain of SUMO-activating enzyme (Q9UBT2 whole entry): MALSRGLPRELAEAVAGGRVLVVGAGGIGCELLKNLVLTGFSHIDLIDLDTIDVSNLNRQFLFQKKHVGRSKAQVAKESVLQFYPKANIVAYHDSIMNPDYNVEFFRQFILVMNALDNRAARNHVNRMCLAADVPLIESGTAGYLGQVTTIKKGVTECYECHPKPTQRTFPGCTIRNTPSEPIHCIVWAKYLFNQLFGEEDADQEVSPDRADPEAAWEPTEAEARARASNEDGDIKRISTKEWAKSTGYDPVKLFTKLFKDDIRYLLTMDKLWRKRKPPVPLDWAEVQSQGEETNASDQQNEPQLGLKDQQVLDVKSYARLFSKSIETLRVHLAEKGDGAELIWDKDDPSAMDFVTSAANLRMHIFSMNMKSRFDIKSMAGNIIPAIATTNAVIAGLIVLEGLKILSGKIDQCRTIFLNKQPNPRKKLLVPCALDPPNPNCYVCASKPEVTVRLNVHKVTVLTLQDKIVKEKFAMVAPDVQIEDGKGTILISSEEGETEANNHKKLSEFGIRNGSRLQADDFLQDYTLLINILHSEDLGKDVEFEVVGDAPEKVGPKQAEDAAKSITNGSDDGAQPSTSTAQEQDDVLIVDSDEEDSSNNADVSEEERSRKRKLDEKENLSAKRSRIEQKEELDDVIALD

Take `COc1ccc(CNC(=O)COC(=O)[C@H](Cc2c[nH]c3ccccc23)NC(=O)c2cccs2)cc1`: the IC50 is 26.9 µM (inactive) in assay [1], 13.1 µM (inactive) in [2], 12.8 µM (inactive) in [3] and > 66.2 µM (inactive) in the assay on CHO-K1.

Take `CCc1ccc(N2CC(C(=O)N3CCN(c4ccccn4)CC3)CC2=O)cc1` (stereo not given): in the assay with Escherichia coli, the AC50 was 29.9 µM (active).

With `COc1ccc(-c2nc3cc([N+](=O)[O-])ccc3[nH]2)cc1`, at SUMO-activating enzyme, the IC50 is 35 µM (active).

As for `Nc1ccc2oc(-c3cccs3)nc2c1`, the AC50 with HeLa is 168 µM (active); in assay [4] it was 0.155 µM (active).

Take `CC(C)n1c(=O)[nH][nH]c1=S`: the IC50 in assay [1] is 7.04 µM (active); in assay [2], 34.4 µM (inactive); in assay [3] it was > 49.8 µM (inactive); in the assay with CHO-K1 it was > 66.2 µM (inactive).

As for `CC1CCc2cc(F)cc3c(=O)c(C(=O)O)cn1c23` (stereo not given) [FLUMEQUINE], the AC50 in the assay on Escherichia coli was 1.99 µM (active).

`CCOc1ccc2nc(C)cc(Nc3cccc([N+](=O)[O-])c3)c2c1`: the EC50 in assay [5] is 5.88 µM (active); in assay [7] it was 7.34 µM (active). In addition, the AC50 in assay [6] was 17.8 µM (active).

With `CCSc1nnc(NC(=O)NC2CCCCC2)s1`, in the assay on HeLa, the AC50 is 136 µM (active).

In the case of `Nc1c(C(=O)O)ccc2c1C(=O)c1ccccc1C2=O`, the AC50 in [8] was 1.28 µM (active).

On to `COc1cc(/C=C2/C(=N)N3C(SC)=NSC3=NC2=O)ccc1OC(=O)c1ccco1`, for which the AC50 in [8] was 5.64 µM (active).

On to `CC1CCC/C=C/C(=O)c2c(O)cc(O)cc2CC(=O)O1` (stereo not given), for which the AC50 was 4.12 µM (active) in assay [9], 13.6 µM (active) in [10], > 70 µM (inactive) in assay [11] and 5.79 µM (active) in assay [6].

As for `NS(=O)(=O)c1ccc(CCNC(=O)Cc2ccc(S(=O)(=O)N3CCCC3)s2)cc1`, the IC50 on Aminopeptidase N was 8.91 µM (active). The AC50 in the assay on Escherichia coli was 39.6 µM (active).

Regarding `CC(C)c1ccc(/C=N/NC(=O)C2CCCC2)cc1`, the AC50 in the assay with HeLa is 132 µM (active). Also, the EC50 with H4 was 2.72 µM (active); in assay [12], 8.02 µM (active).

For `CCc1ccc(NC(=O)c2nnc(O)c3ccccc23)cc1`, in the assay on HeLa, the AC50 is > 350 µM (inactive).

On to `Oc1c(Br)cc(C2NC(c3ccccc3)=NO2)cc1Br` (stereo not given), for which the AC50 in the assay on Escherichia coli is 20.2 µM (active).

One may read the IC50 as the midpoint of a concentration-inhibition curve. By AC50 is commonly meant the midpoint of the concentration-response curve, whichever way the signal moves. Broadly, the EC50 is the concentration at which the effect is half-maximal.
